Assay results from publication PMC7069944, “Amino acid levels determine metabolism and CYP450 function of hepatocytes and hepatoma cell lines” (Nature Communications, 2020).
“And” between values parts separate entries of the source, which are not always exact repeats. Equal entries are not always repeated.

Tests used:
HepG2 = assay: Repeated-exposure DILI training compounds, resazurin conversion, HepG2; settings: listed as Nefadazone; for resazurin conversion (Supplementary Figure 7D): replicates; for % resazurin conversion: repeat exposure
Outline: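 Hepatotoxicity prediction used a miniaturized 384-well differentiation setup, scoring viability through resazurin reduction relative to Cmax.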

HC6X = assay: Repeated-exposure DILI training compounds, resazurin conversion, HC6X; settings: listed as Nefadazone; for resazurin conversion (Supplementary Figure 7D): replicates; for % resazurin conversion: repeat exposure
Outline: (§1)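 PSC-derived cells differentiated in 384-well format, plus HepG2 seeded at 40,000 cells/well, received drugs after 8 h of attachment; untreated wells served as negative controls. Viability was measured by resazurin conversion and related to therapeutic Cmax values.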

HC3X = assay: Repeated-exposure DILI training compounds, resazurin conversion, HC3X; settings: for resazurin conversion (Supplementary Figure 7D): HC3X AAGLY D40, replicates
Outline: as §1

HLC = assay: Repeated-exposure DILI training compounds, resazurin conversion, HLC; settings: listed as Nefadazone; for resazurin conversion (Supplementary Figure 7D): replicates; for % resazurin conversion: repeat exposure
Outline: as §1

CCc1nn(CCCN2CCN(c3cccc(Cl)c3)CC2)c(=O)n1CCOc1ccccc1 [nefazodone]
resazurin conversion (Supplementary Figure 7D) (HepG2; HepG2 AAGLY D30, 3 uM): 105.9 and 126.8 and 102.6 and 103 and 93.1 and 96.9 | resazurin conversion (Supplementary Figure 7D) (HepG2; HepG2 AAGLY D30, 5 uM): 129.6 and 134.9 and 121.5 and 111.6 and 104 and 111.7 | resazurin conversion (Supplementary Figure 7D) (HepG2; HepG2 AAGLY D30, 10 uM): 105.3 and 123.3 and 96.5 and 99.1 and 96.1 and 97.4 | resazurin conversion (Supplementary Figure 7D) (HepG2; HepG2 AAGLY D30, 30 uM): 36 and 76.7 and 84.8 and 78.3 and 78 and 67.3 | resazurin conversion (Supplementary Figure 7D) (HepG2; HepG2 AAGLY D30, 50 uM): 9 and 9.3 and 8 (2×) and 8.1 and 7.7 | resazurin conversion (Supplementary Figure 7D) (HepG2; HepG2 AAGLY D30, 100 uM): 9.2 and 9.7 and 8.4 (2×) and 7.9 and 8.1 | resazurin conversion (Supplementary Figure 7D) (HepG2; HepG2 AAGLY D30, 300 uM): 11.5 and 11.8 and 10.1 (2×) and 10.3 and 9.9 | resazurin conversion (Supplementary Figure 7D) (HepG2; HepG2 AAGLY D30, 600 uM): 11.8 and 11.6 and 10.3 and 10.8 and 10.2 and 10.1 | resazurin conversion (Supplementary Figure 7D) (HepG2; HepG2 CTL D7, 3 uM): 81.4 and 72 and 103.7 and 72.2 and 87 and 94.4 | resazurin conversion (Supplementary Figure 7D) (HepG2; HepG2 CTL D7, 5 uM): 84.8 and 64.7 and 80.3 and 68.3 and 74.8 and 74.1 | resazurin conversion (Supplementary Figure 7D) (HepG2; HepG2 CTL D7, 10 uM): 81.6 and 63.4 and 87.3 and 63.9 and 78.5 and 72.9 | resazurin conversion (Supplementary Figure 7D) (HepG2; HepG2 CTL D7, 30 uM): 60.5 and 51.3 and 64.3 and 51.4 and 61.6 and 55.4 | resazurin conversion (Supplementary Figure 7D) (HepG2; HepG2 CTL D7, 50 uM): 35.6 and 31 and 32.6 and 33.9 and 34.6 and 33.7 | resazurin conversion (Supplementary Figure 7D) (HepG2; HepG2 CTL D7, 100 uM): 30.9 and 30.6 and 31.4 and 30 and 30.5 and 29.7 | resazurin conversion (Supplementary Figure 7D) (HepG2; HepG2 CTL D7, 300 uM): 36.6 and 35.8 and 37 and 36.1 and 37.2 and 36 | resazurin conversion (Supplementary Figure 7D) (HepG2; HepG2 CTL D7, 600 uM): 37.5 (2×) and 36.2 and 38.4 and 36.6 and 34.9 | % resazurin conversion (HepG2; HepG2 AAGLY D30, 1200 uM): 11% and 9.3% and 9.9% and 9.1% | % resazurin conversion (HepG2; HepG2 CTL D7, 1200 uM): 34.4% and 33.1% and 36.4% and 33% and 34.9% and 32.3% | resazurin conversion (Supplementary Figure 7D) (HC6X; HC6X AAGLY D40, 3 uM): 86.5 and 67.1 and 73.3 and 119.9 and 72.8 and 62.6 | resazurin conversion (Supplementary Figure 7D) (HC6X; HC6X AAGLY D40, 5 uM): 140.1 and 114.8 and 61.7 and 68.6 and 76.5 and 54.7 | resazurin conversion (Supplementary Figure 7D) (HC6X; HC6X AAGLY D40, 10 uM): 51.6 and 55.1 and 57.3 and 43.6 and 49.8 and 39.8 | resazurin conversion (Supplementary Figure 7D) (HC6X; HC6X AAGLY D40, 30 uM): 34.6 and 33.4 and 31.3 and 32.6 and 37.8 and 31.2 | resazurin conversion (Supplementary Figure 7D) (HC6X; HC6X AAGLY D40, 50 uM): 34.2 and 34.7 and 32 and 32.2 and 31.8 and 32.4 | resazurin conversion (Supplementary Figure 7D) (HC6X; HC6X AAGLY D40, 100 uM): 37.1 and 36.6 and 34.3 and 34.6 and 33.8 and 34.2 | resazurin conversion (Supplementary Figure 7D) (HC6X; HC6X AAGLY D40, 300 uM): 40.6 and 41.1 and 39.2 and 40 and 39.1 and 37.4 | resazurin conversion (Supplementary Figure 7D) (HC6X; HC6X AAGLY D40, 600 uM): 39.7 and 40.4 and 38.5 and 38.6 and 37.6 and 37.9 | resazurin conversion (Supplementary Figure 7D) (HC6X; HC6X AAGLY D40 Remove dox, 3 uM): 183.4 and 100.9 and 109.5 and 115 and 122 and 109.2 | resazurin conversion (Supplementary Figure 7D) (HC6X; HC6X AAGLY D40 Remove dox, 5 uM): 251 and 184.4 and 147 and 113 and 98.3 and 98.4 | resazurin conversion (Supplementary Figure 7D) (HC6X; HC6X AAGLY D40 Remove dox, 10 uM): 257.2 and 78.2 and 239.1 and 205.6 and 148.8 and 110.7 | resazurin conversion (Supplementary Figure 7D) (HC6X; HC6X AAGLY D40 Remove dox, 30 uM): 87 and 111.9 and 134.6 and 112.2 and 58.4 and 83.6 | resazurin conversion (Supplementary Figure 7D) (HC6X; HC6X AAGLY D40 Remove dox, 50 uM): 39.8 and 27.8 and 36.9 and 29.8 and 32 and 29.6 | resazurin conversion (Supplementary Figure 7D) (HC6X; HC6X AAGLY D40 Remove dox, 100 uM): 29.7 (2×) and 28.9 and 29.4 and 29.6 and 29.1 | resazurin conversion (Supplementary Figure 7D) (HC6X; HC6X AAGLY D40 Remove dox, 300 uM): 34.3 and 32.8 and 33.8 and 34 and 34.1 and 34.5 | resazurin conversion (Supplementary Figure 7D) (HC6X; HC6X AAGLY D40 Remove dox, 600 uM): 36.7 (2×) and 35.4 and 36 and 36.5 and 36.3 | % resazurin conversion (HC6X; HC6X AAGLY D40, 1200 uM): 40.4% and 40.1% and 39.1% and 39.2% and 37.6% and 37.4% | % resazurin conversion (HC6X; HC6X AAGLY D40 Remove dox, 1200 uM): 38.2% and 35.3% and 36.9% and 37.7% and 37% and 35.8% | resazurin conversion (Supplementary Figure 7D) (HC3X; 3 uM, listed as Nefadazone): 123.3 and 103.5 and 107.9 and 73 and 98.7 and 69.4 | resazurin conversion (Supplementary Figure 7D) (HC3X; 5 uM, listed as Nefadazone): 105.3 and 82.4 and 66.4 and 71.1 and 119.1 and 75.8 | resazurin conversion (Supplementary Figure 7D) (HC3X; 10 uM, listed as Nefadazone): 99 and 147.2 and 96.3 and 91.8 and 116 and 76.9 | resazurin conversion (Supplementary Figure 7D) (HC3X; 30 uM, listed as Nefadazone): 10.5 and 10.9 and 12.1 and 10 and 9.5 and 10.1 | resazurin conversion (Supplementary Figure 7D) (HC3X; 50 uM, listed as Nefadazone): 10 and 9.9 and 9.3 (2×) and 9.2 and 9.8 | resazurin conversion (Supplementary Figure 7D) (HC3X; 100 uM, listed as Nefadazone): 10.6 and 10.4 and 9.7 and 9.8 and 9.4 and 9.6 | resazurin conversion (Supplementary Figure 7D) (HC3X; 300 uM, listed as Nefadazone): 11.9 and 11.5 and 10.9 and 11.2 and 10.5 and 10.7 | resazurin conversion (Supplementary Figure 7D) (HC3X; 600 uM, listed as Nefadazone): 12 and 12.2 and 11.3 and 11.6 and 11.1 and 10.9 | IC50/Cmax (HC3X; human): 12.43 | % resazurin conversion (HC3X; repeat exposure, HC3X AAGLY D40, 1200 uM, listed as Nefadazone): 12.8% and 12.4% and 11.8% and 12.1% and 11.5% and 12.2% | resazurin conversion (Supplementary Figure 7D) (HLC; HLC AAGLY D40, 3 uM): 81 and 139.4 and 131.8 and 81.1 and 194.1 and 102.8 | resazurin conversion (Supplementary Figure 7D) (HLC; HLC AAGLY D40, 5 uM): 158.2 and 102.6 and 130.1 and 239.6 and 167 and 46.2 | resazurin conversion (Supplementary Figure 7D) (HLC; HLC AAGLY D40, 10 uM): 117.1 and 195.1 and 92.8 and 87 and 6 and 258.8 | resazurin conversion (Supplementary Figure 7D) (HLC; HLC AAGLY D40, 30 uM): 52.4 and 182.9 and 124.1 and 55.1 and 48.3 and 27 | resazurin conversion (Supplementary Figure 7D) (HLC; HLC AAGLY D40, 50 uM): 46.9 and 25.2 and 26.1 and 23.4 and 30.1 and 22.3 | resazurin conversion (Supplementary Figure 7D) (HLC; HLC AAGLY D40, 100 uM): 22.1 and 23 and 22.5 and 22.9 and 24.2 and 22.8 | resazurin conversion (Supplementary Figure 7D) (HLC; HLC AAGLY D40, 300 uM): 25.4 and 26.9 (2×) and 25.9 and 25.8 and 27.1 | resazurin conversion (Supplementary Figure 7D) (HLC; HLC AAGLY D40, 600 uM): 27.4 and 30.3 and 28.5 and 29.2 and 27.1 and 28.7 | resazurin conversion (Supplementary Figure 7D) (HLC; HLC LDM D40, 3 uM): 101.3 and 106.4 and 83.1 and 128.8 and 110.4 and 128.2 | resazurin conversion (Supplementary Figure 7D) (HLC; HLC LDM D40, 5 uM): 103.9 and 126.1 and 116.3 and 112.6 and 76.1 and 103.3 | resazurin conversion (Supplementary Figure 7D) (HLC; HLC LDM D40, 10 uM): 114.4 and 115.2 and 124.5 and 104.3 and 103.8 and 111.5 | resazurin conversion (Supplementary Figure 7D) (HLC; HLC LDM D40, 30 uM): 92.8 and 75.4 and 51.3 and 90.2 and 120.8 and 118.9 | resazurin conversion (Supplementary Figure 7D) (HLC; HLC LDM D40, 50 uM): 12.7 and 17.8 and 12.3 and 20.8 and 25.8 and 69.6 | resazurin conversion (Supplementary Figure 7D) (HLC; HLC LDM D40, 100 uM): 11 and 11.6 and 11.2 and 11.3 and 10.7 and 11.5 | resazurin conversion (Supplementary Figure 7D) (HLC; HLC LDM D40, 300 uM): 13.5 and 13.3 and 13.6 and 12.4 and 12.2 (2×) | resazurin conversion (Supplementary Figure 7D) (HLC; HLC LDM D40, 600 uM): 13.7 (2×) and 13.1 and 13.4 and 13.5 and 13.2 | % resazurin conversion (HLC; HLC AAGLY D40, 1200 uM): 28.9% and 30.9% and 30.5% and 32.9% and 28% and 30.1% | % resazurin conversion (HLC; HLC LDM D40, 1200 uM): 14.7% and 15.3% and 13.9% and 14.1% and 13.7% and 12%
